According to patent US5366975A, “Invertebrate phenylethanolamine transporter and the use thereof” (priority 1992, dated 1994):
Where a name gives a salt, the structure may show the parent alone. Read-outs that look alike come from different tables or passages of the source.

How the values were obtained:
[1] = tested on: tobacco hornworms (Manducca sexta); set-up: species or system Manduca sexta; conditions: in vivo
Gs -coupled OA receptors = conditions: Manduca, a sensitive species; cited from earlier work
adenylate cyclase = conditions: cockroach, a resistant species; cited from earlier work
Manducca eggs = test: Ovicidal assay; assay type: in vivo, Manduca sexta; conditions: 3% cocaine
Method: Test agents were tested for ovicidal activity by dipping groups of 10-50 Manducca eggs in drug solutions for 60 seconds and then determining the percentage of eggs which produced viable larvae. Alternatively, the eggs may be sprayed with the test agent and then placed on artificial media to hatch. A compound with active ovicidal activity was one which decreased the percentage of eggs hatched, relative to control.

firefly lantern = test: Firefly lantern assay (OA-stimulated light emission); assay type: in vivo, P. pyralis; conditions: fixed dose of cocaine injected simultaneously with OA into isolated firefly tails; zero Ca++/high Mn++
Text: To measure the effects of drugs on firefly light emission, an isolated tail (terminal 3 abdominal segments containing the light organ) of a fresh adult P. pyralis male was mounted on a […] stainless steel needle and placed at the focal point of an optical system connected to a photometer-photomultiplier-chart recorder combination (see Nathanson, J. A., Characterization of octopamine-sensitive adenylate cyclase: Development of a potent and selective class of octopamine-2 receptor agonists with toxic effects in insects, Proc. Natl. Acad. Sci. U.S.A. 82: 599-603 (1985)). Drug (dissolved in insect saline, see Carlson, A.D., Effect of adrenergic drugs on the lantern of the larvae of the Photinus firefly, J. Exp. Biol. 48: 381-387 (1968)) was injected (3-5 μl) into the abdominal cavity dorsal to the lantern and light emission was recorded for 45 minutes or until it peaked, following which the next (larger) dose of drug was injected. In the case of animals injected with drugs other than octopamine, following the last dose, […] of octopamine (a maximally effective dose) was injected. Light production is expressed as radiance, each unit approximately equal to 1.6 nanowatts, as measured in a solid angle of 0.033 steradiants. […]

mosquito larvae = test: Antilarval activity on mosquito larvae; assay type: in vivo
Method: Five to ten 2-5-day old mosquito larvae, reared from eggs, were placed in small bottles containing 3 ml of water, 2 ml of air space, and a perforated cap open to the air. The compound of interest was dissolved in water or appropriate solvent and added to make a final concentration of from 0.00001 to 1%. The bottles were capped and observed at daily intervals for the number of living larvae, pupae, and emerging adults. After two weeks, the final number of adults emerging as a percentage, relative to control, is plotted as a function of drug concentration.

[2] = tested on: octopamine reuptake transporter; assay type: cell-based, Blaberus; conditions: 100 μM cocaine; ±S.E.M. of triplicate determinations; control 13.6±1.7
[3] = tested on: octopamine reuptake transporter; assay type: biochemical, cockroach

Compound	RANK ORDER ANTIFEEDING EFFECT IN MANDUCA [1]	antifeeding effect [1]	% leaf remaining [1] [%]	further results
CCN(CC)CC(=O)Nc1c(C)cccc1C [lidocaine]				antifeeding inhibition [1]: 15%
Cc1cc(Cl)ccc1N=CN [DDCDM, didemethylchlordimeform]				potency relative to OA (full OA agonist) (Gs -coupled OA receptors): 20 fold; potency in activating adenylate cyclase relative to OA (adenylate cyclase): much weaker than OA
NCCc1c[nH]c2ccc(O)cc12 [5-HT, serotonin]				antifeeding effect compared to OA [1]: significantly weaker than OA
OC1(c2ccc(Cl)cc2)c2ccccc2C2=NCCN21 (stereo not drawn) [mazindol]	FLUOX >>MAZ	no antifeeding activity		
CCN(CCCl)Cc1ccccc1Br [DSP-4]	GBR > COC = DMI = AMT > DSP = XYL =		~100	
CN1[C@H]2CC[C@@H]1[C@@H](C(=O)O)[C@H](O)C2 [Ecgonine hydrochloride, (-)-beta-hydroxy-1-alpha-H, 5-alpha-H-tropane-2-beta-carboxlic acid hydrochloride]		no antifeeding effect		
NC[C@H](O)c1ccc(O)c(O)c1 [NE, norepinephrine]				antifeeding effect compared to OA [1]: significantly weaker than OA
NCCc1ccc(O)c(O)c1 [DA, dopamine]		no antifeeding effects		antifeeding effect of addition to cocaine [1]: no further increase in antifeeding effect
COC(=O)C1=CC[C@@H]2CC[C@H]1N2C [Ecgonidine methyl ester mesylate, (1 R)-8-methyl-8-azabicyclo[3,2,1]oct-2-ene-2-carboxylic acid methyl ester mesylate]		no antifeeding effect		
COC(=O)[C@H]1[C@@H](OC(=O)c2ccccc2)C[C@@H]2CC[C@H]1N2C [cocaine]	GBR > COC = DMI = AMT > DSP = XYL =			behavior of larvae on sprayed leaves [1]: marked behavioral abnormalities; time after which animals died [1]: 48 to 72 h; percent dead ova (Manducca eggs): greater than 95%; leftward shift in the OA dose-response curve (factor) (firefly lantern): about 10; percent larvae surviving to mature adulthood (mosquito larvae; 0.01% cocaine in water): approximately 50%; adults produced (mosquito larvae; 0.1% cocaine in water): no adults were produced; total uptake of octopamine [2]: 9.6 ±1.4 pmol/mg protein; inhibition of sodium-dependent octopamine uptake ([3]; 10 μM cocaine): about 25%; inhibition of sodium-dependent octopamine uptake ([3]; 100 μM cocaine): about 68%
CNCCCN1c2ccccc2CCc2ccccc21 [DMI, desmethylimipramine]	GBR > COC = DMI = AMT > DSP = XYL =		~80	
CNCCC(Oc1ccc(C(F)(F)F)cc1)c1ccccc1 (stereo not drawn) [fluoxetine]	FLUOX >>MAZ		~85	
CN(C)CCC=C1c2ccccc2CCc2ccccc21 [AMT, amitriptyline]	GBR > COC = DMI = AMT > DSP = XYL =		~100	
1-(2-[bis-(4-fluorophenyl)methoxy]ethyl)-4-(3-phenyl-2-propenyl)piperazine [GBR 12909]	GBR > COC = DMI = AMT > DSP = XYL =		~95	
CN1CCC(=C2c3ccccc3C=Cc3ccccc32)CC1 [cyproheptadine]			~55	
CCN(CC)CCOC(=O)c1ccc(N)cc1 [procaine]		only lidocaine showed any activity		
